In data set [1] the test system is HIF-2α target genes in tumor cells. To be noted: cited from earlier work.
In the next data set the test system is mouse xenograft models. To be noted: cited from earlier work.
Data set [2] concerns clear cell renal cell carcinoma (ccRCC). To be noted: patients with ccRCC; cited from earlier work.
Another data set has as its system HIF-2α. The settings on record: cited from earlier work.
A further data set deals with HIF-1a. To be noted: cited from earlier work.
The test system of the next data set is C2Cl2 myoblasts. Nature of the data set: RT-qPCR of HIF-2α and Spry1 mRNA in C2Cl2 myoblasts. In kind it is cell-based. Here is the method: C2Cl2 myoblasts were transfected with pCMEGIP-HIF2αTM or control empty pCMEGIP plasmids using TransIT-X2 (Mirus Bio.). To differentiate C2Cl2 myoblasts, cells were cultured to reach 80% confluency and further cultured in DMEM (4.5 g/L glucose) medium supplemented with 2% horse serum for 5 days.
For measure relative expression levels, total RNA was isolated from C2Cl2 myoblasts using TRIzol or from FACS sorted satellite cells using PicoPure RNA Isolation Kit (Thermo Fisher Scientific). 1 μg total RNA from C2Cl2 myoblasts (or 0.2 μg total RNA from satellite cells) was used in 20 μl reverse transcription reactions (Maxima; Life technologies) and diluted into 100 μl. 2 μl diluted cDNA was used in 8 μl quantitative PCR reactions (SsoAdvanced™ Universal SYBR Green mix; Bio-Rad) on a BioRad CFX384™ Real-Time PCR Detection System. Cq-values were determined and expression values were calculated by BioRad CFX Manager™ Software. Relative expression values were normalized to inner reference genes Rps18 and Tbp of each biological sample. The following primers were used for quantifying expression levels: […]

The test system of the next data set is CTX-injured TA muscles. As to the kind of experiment: Muscle regeneration after CTX-induced injury, intramuscular HIF-c2. To be noted: for total number of Pax7+ SCs per TA muscle section: vs DMSO. As to the method: To induce Cre activity in mice with the Pax7^cre/ERT2 allele, tamoxifen (20 mg/ml in corn oil) was intraperitoneally administrated for 3 consecutive days (100 mg/Kg/day). To assess myofiber damage, 1% Evan's blue (4 ml/Kg in saline) was intraperitoneally administrated 1 day before the euthanasia. To trace proliferative cells, EdU (50 mg/Kg in DMSO) was intraperitoneally administrated 1 day before the euthanasia. For CTX-induced muscle injury, CTX (0.5 nmol in saline) was injected into TA muscle.
For staining muscle sections, muscle sections were fixed with 2% paraformaldehyde (PFA)/PBS for 10 mins, quenched with 50 mM glycine for 10 mins, permeabilized with 0.5% Triton X-100 for 10 mins. To reduce background fluorescence due to endogenous mouse IgG, Mouse on Mouse (M.O.M.) Blocking Reagent (Vector Lab) was used according to the manufactures' instruction. Muscle sections were blocked in 5% BSA/5% normal goat serum in PBS for 1 hr and incubated with primary antibodies: anti-Pax7 (1:5; DSHB), anti-HIF-2α (1:250; Novus Bio.), anti-HIF-1α (1:250; Novus Bio.), anti-Ki67 (1:1,000; Abcam), anti-Laminin B2 (1:1,000; Milipore), anti-embryonic MyHC (1:50, DSHB), anti-MyHC type I, IIA, or IIB (1:50, DSHB) overnight at 4° C. For EdU staining, Click-iT EdU Fluorescence Kit (Life technologies) was used according to the manufactures' instruction before the application of primary antibodies. Muscle sections were washed in PBS with 0.1% Tween-20, incubated with Alexa Fluor dye-labeled secondary antibodies at room temperature for 1 hr and washed. Sections were mounted with DAPI-containing mounting medium (Life technologies).
Peak isometric torque of the ankle dorsiflexors (tibialis anterior, extensor digitorum longus and extensor hallicus longus muscles) was assessed in vivo as previously described (47). Briefly, mice were anaesthetized with 1.75% isoflurane mixed with oxygen. The left hindlimb was depilated and aseptically prepared before the foot was placed into a foot plate attached to a servomoter (Model 300C-LR; Aurora Scientific, Aurora, Ontario, Canada). Two Pt-Ir electrode needles (Model E2-12; Grass Technologies, West Warwick, RI, USA) were inserted percutaneously on either side of the peroneal nerve. The ankle joint was secured at a 90° angle and body temperature was maintained at 37° C. throughout functional testing. Peak isometric torque was achieved by varying the current delivered to the peroneal nerve at a frequency of 200 Hz and a 0.1-ms square wave pulse. Torques (Nomm) were normalized by the body mass (kg^−1) to account for differences in body size among mice. Following peak isometric torque measurements, the dorsiflexors were subject to 100 electronically stimulated eccentric contractions in order to induce injury. During each contraction the foot was passively moved from the 0° position (perpendicular to tibia) to 20° of dorsiflexion. The dorsiflexors were stimulated at 200 Hz for a 100-ms isometric contraction followed by an additional 50 ms of stimulation while moving from 20° dorsiflexion to 20° plantarflexion at an angular velocity of 800°/s. Eccentric contractions were repeated every 10 seconds and the entire protocol lasted about […].
Muscle sections were stained with Sirius red solution (0.1% in picric acid) for 15 mins, washed with 1% acetic acid for 3 times. Sections were mounted with Cytoseal™ 60 mounting medium (Thermo Fisher Scientific), followed with imaging.
To investigate effects of HIF-2α inhibition on muscle regeneration, HIF-c2 or the carrier solution (1% DMSO) was administered into CTX-injured TA muscles of C57BL/6 mice (daily injections between 1-5 dpi; FIG. 5A). EdU was administrated in the same mice to trace cell proliferation.

The target in the next data set is HIF-1 (Homo sapiens, UniProt Q16665). The settings on record: selectivity for the HIF-2 isoform; cited from earlier work.
The target of the next data set is HIF-2α PAS-B (Homo sapiens, UniProt Q99814). The settings on record: binds within the internal cavity of HIF-2α PAS-B; cited from earlier work.
Data set [3] relates to CTX-injured tibialis anterior (TA) muscles of hypoxia-exposed mice. Nature of the data set: Muscle regeneration after CTX injury under eubaric hypoxia. In kind it is in vivo, wildtype B6 mice. The settings on record: hypoxia 17% pO2, 10 dpi. As to the method:
To gain insights on hypoxic effect on muscle regeneration, wildtype B6 mice (12-week old) were treated with eubaric hypoxia (17% pO2, 1 atm) in hypoxia chamber for 4 weeks and injected with CTX (0.5 nmol, 100 μL) into tibialis anterior (TA) muscles at day 18. Mice under normoxia (21% pO2, 1 atm) were injured with CTX as a control.
To assess if HIF-2α inhibition benefits regeneration under experimental hypoxia, HIF-2α inhibitor HIF-C2 (5 mg in 0.1% DMSO) or vehicle (0.1% DMSO) were intramuscularly administered to the injured muscles at days 2, 3 and 4 post-injury (2-4 dpi).

For data set [4], the target named is full-length HIF-2 transcription factor (Homo sapiens, UniProt Q99814). The settings on record: cited from earlier work.
A further data set deals with HIF-2. The settings on record: living cells; cited from earlier work.
The test system of data set [5] is tibialis anterior (TA) muscles of mTR/Mdx mice. As to the kind of experiment: Intramuscular HIF-C2 in dystrophic TA muscle of mTR/Mdx mice. Type of data set: in vivo. Here is the method: To reveal the potential therapeutic effects of HIF-2α inhibition on muscular dystrophy, the HIF-2α inhibitor HIF-C2 was intramuscularly injected (5 mg/injection; total 3 doses on day 1, day 4, and day 7) into tibialis anterior (TA) muscles of mTR/Mdx mice (2nd generation; males: n=3 and females: n=3; 16-week old). The contralateral TA muscles received vehicle (0.1% DMSO) injections followed the same injection regime. HIF-C2 and vehicle-treated TA muscles were collected for histological examinations at 28 days after the first treatment.
To investigate whether HIF-C2 improves satellite cell function in mTR/Mdx mice, Pax7 (the definitive marker of satellite cells) and Ki67 (a proliferation marker) immunostaining were carried out on muscle cross-sections and the number of Pax7+pos cells (total number of satellite cells) and Pax7+pos/Ki67+pos cells (proliferative satellite cells) per muscle section were enumerated.
Muscle fibrosis is one of the characteristic pathological changes of Duchenne muscular dystrophy (Klingler et al., Acta Myol 31, 184-195 (2012)). […] Thus, Masson's trichrome staining was performed to reveal the amount of collagen in endomysium.

Setting [6] is: shRNA expression in C2Cl2 myoblasts.

Entries after “also recorded” stand apart in the source; their conditions may differ.

Sequence of HIF-1 (Q16665 whole entry, canonical isoform): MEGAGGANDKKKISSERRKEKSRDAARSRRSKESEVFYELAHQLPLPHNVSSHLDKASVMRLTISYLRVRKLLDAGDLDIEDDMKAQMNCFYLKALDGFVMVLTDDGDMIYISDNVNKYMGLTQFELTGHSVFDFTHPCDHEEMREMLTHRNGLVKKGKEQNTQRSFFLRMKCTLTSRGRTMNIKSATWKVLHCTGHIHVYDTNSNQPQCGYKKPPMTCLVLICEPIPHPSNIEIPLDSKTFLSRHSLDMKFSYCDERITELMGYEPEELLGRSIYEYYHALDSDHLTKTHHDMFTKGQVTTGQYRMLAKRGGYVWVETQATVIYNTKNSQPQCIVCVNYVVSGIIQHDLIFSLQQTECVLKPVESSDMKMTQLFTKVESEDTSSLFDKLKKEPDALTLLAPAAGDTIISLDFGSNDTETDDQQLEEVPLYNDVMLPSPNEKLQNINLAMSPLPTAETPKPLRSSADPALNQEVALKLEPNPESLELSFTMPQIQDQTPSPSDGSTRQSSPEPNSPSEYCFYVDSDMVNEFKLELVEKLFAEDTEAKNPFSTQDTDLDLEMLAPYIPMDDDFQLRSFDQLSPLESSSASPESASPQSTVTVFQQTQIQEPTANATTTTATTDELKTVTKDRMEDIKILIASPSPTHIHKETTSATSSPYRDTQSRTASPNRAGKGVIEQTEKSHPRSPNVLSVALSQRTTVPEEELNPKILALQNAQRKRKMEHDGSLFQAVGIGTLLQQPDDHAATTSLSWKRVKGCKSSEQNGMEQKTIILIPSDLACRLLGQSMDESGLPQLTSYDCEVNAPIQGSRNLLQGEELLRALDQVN
Sequence of full-length HIF-2 transcription factor (Q99814 whole entry): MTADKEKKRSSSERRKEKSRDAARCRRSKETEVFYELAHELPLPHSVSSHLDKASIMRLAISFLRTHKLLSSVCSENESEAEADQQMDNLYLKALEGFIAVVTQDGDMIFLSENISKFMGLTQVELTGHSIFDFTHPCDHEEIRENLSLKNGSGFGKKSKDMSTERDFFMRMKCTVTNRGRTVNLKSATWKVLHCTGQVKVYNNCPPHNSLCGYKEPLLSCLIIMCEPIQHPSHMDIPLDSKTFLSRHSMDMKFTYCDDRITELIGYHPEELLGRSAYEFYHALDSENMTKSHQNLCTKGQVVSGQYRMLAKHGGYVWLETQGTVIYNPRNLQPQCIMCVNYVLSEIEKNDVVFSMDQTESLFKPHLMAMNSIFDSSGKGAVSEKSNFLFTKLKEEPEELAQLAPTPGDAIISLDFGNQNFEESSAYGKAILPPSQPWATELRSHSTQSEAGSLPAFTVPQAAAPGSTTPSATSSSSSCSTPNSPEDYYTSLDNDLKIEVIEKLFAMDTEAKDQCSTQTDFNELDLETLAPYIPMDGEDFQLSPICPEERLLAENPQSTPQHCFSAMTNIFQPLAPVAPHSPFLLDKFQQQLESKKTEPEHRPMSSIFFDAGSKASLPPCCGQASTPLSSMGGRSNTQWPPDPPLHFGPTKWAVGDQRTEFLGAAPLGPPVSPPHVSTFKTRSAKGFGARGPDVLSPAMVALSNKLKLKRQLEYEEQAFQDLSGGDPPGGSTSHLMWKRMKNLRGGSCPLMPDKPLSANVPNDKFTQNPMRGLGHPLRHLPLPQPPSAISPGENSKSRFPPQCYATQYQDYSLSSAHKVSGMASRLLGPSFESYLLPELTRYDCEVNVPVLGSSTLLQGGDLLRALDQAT
Sequence of HIF-2α PAS-B (Q99814 240-350 limits assumed): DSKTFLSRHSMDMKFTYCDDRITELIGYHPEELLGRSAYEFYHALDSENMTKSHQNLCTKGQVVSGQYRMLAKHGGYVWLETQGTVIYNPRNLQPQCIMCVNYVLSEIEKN

Turning to `CS(=O)(=O)c1ccc(Oc2cc(F)cc(C#N)c2)c2c1[C@H](O)[C@H](F)[C@@H]2F` [PT2977], the “expression of HIF-2α target genes” value in [1] is on record as “inhibited”. Further, in the data set with mouse xenograft models, the tumor regression entry is given as “induced regression”.

Consider `CS(=O)(=O)c1ccc(Oc2cc(F)cc(C#N)c2)c2c1[C@H](O)C(F)(F)C2` [PT2385], for which the clinical activity entry in data set [2] is on record as “demonstrated clinical activity”.

For the molecule `O=C(CCCCCCC(=O)Nc1ccccc1)NO` [Vorinostat], the “reversal of epigenetic silencing of HIF-2α” value with HIF-2α is “can reverse the epigenetic silencing of HIF-2α”. The “reversal of epigenetic silencing of HIF-1a” value with HIF-1a was “not HIF-1a”.

Usually Kd stands for the equilibrium constant for the complex coming apart. Regarding `O=[N+]([O-])c1c(Nc2cc(F)cc(Cl)c2)ccc2nonc12` [HIF-C2, N-(3-chloro-5-fluorophenyl)-4-nitrobenzo[c][1,2,5]oxadiazol-5-amine], in the data set with C2Cl2 myoblasts (HIF-c2 100 μM, C2Cl2 myoblasts), the “HIF-2α mRNA level” value is recorded as “unchanged” and the “Spry1 mRNA level” value is listed as “decreased; also recorded: reduced”. The “Pax7+/EdU+ activated SCs per TA muscle section” value in the data set on CTX-injured TA muscles (3 dpi, vs 1% DMSO carrier) is on record as “increased”. In the data set with CTX-injured TA muscles (7 dpi), the “expression of HIF-2α in treated muscle” value was “reduced”, the “expression of MyoD in treated muscle” value is on record as “reduced”, the “expression of eMyHC in treated muscle” value was “reduced” and the myofiber regeneration entry was “improved”. In addition, the “total number of Pax7+ SCs per TA muscle section” value in the data set with CTX-injured TA muscles (7 dpi) is “increased”. Further, the “recovery of the maximal torque measured before injury” value with CTX-injured TA muscles (7 dpi, n=6, peroneal nerve stimulation) is reported as about 53%. The “total number of Pax7+ SCs per TA muscle section” value in the data set on CTX-injured TA muscles (10 dpi) is “increased”. Further, in the data set with CTX-injured TA muscles (30 dpi), the “fibrosis (Sirius red staining for collagen)” value is “no overt sign of fibrosis”, the “myofiber cross sectional areas” value is given as “increased” and the “numbers of Pax7+ SCs vs control muscles” value is reported as “comparable numbers”. In addition, the “recovery of the strength (maximal torque)” value in the data set on CTX-injured TA muscles (30 dpi, n=3) is recorded as about 90%. Also, the “HIF-2α expression in muscle (including SCs)” value in the data set with CTX-injured TA muscles (intramuscular, 5 mg/injection/day, 3 consecutive days) was “reduced HIF-2α expression”. In addition, the “activity to antagonize HIF-1” value on HIF-1 was “no activity to antagonize HIF-1”. The Kd on HIF-2α PAS-B is 81 nM. In [3], the “muscle regeneration under hypoxia” value is “improved” and the “percentage of Ki67+ proliferating satellite cells” value is given as “improved satellite cell proliferation under hypoxia to a level better than the normoxic condition”. Moreover, the “MuSC (Pax7+) number” value in data set [3] (5 mg i.m. at 2-4 dpi, vs vehicle) is “increased”. For the same molecule, in data set [4], the “heterodimerization of the full-length HIF-2 transcription factor” value is recorded as “disrupts heterodimerization”. Besides, the “HIF-2 DNA binding and transcription of its target genes” value with HIF-2 was “disrupting HIF-2 DNA binding and inhibiting the transcription of its target genes”. Further, in [5] (female mTR/Mdx mice), the “total number of satellite cells (Pax7+pos) per muscle section” value was “elevated”. Further, the “number of proliferative satellite cells (Pax7+pos/Ki67+pos)” value in data set [5] (female mTR/Mdx mice, 28 days post-treatment, vs control) is “comparable”. In addition, in data set [5] (male mTR/Mdx mice), the “number of centralized nuclei in a myofiber” value is on record as “increased”, the “number of proliferative satellite cells (Pax7+pos/Ki67+pos)” value is recorded as “significantly increased” and the “total number of satellite cells (Pax7+pos) per muscle section” value is “significantly increased”. Besides, the “myofiber cross-sectional area (CSA), ImageJ analysis” value in data set [5] (males and females, 28 days after first treatment) is given as “increase of myofiber caliber”. Moreover, in data set [5] (males and females, 28 days after first treatment, 5 mg/injection x3, vs vehicle), the “myofiber size (H&E staining)” value is recorded as “larger myofibers”. The “amount of collagen in endomysial space (Masson's trichrome staining)” value in data set [5] (vs vehicle-treated control muscles) is “remarkably reduced”.

B1: HIF-2α shRNA #1: For HIF-2α knockdown, HIF-2α shRNA oligos ... cloned into pMSCV-P2GM retrovirus plasmids; HIF-2α shRNA #1 oligo (SEQ ID NO: 18) (nucleic acid)
DNA: TGCTGTTGACAGTGAGCGAACACTTGATGTGGAAACGTATTAGTGAAGCCACAGATGTAATACGTTTCCACATCAAGTGTGTGCCTACTGCCTCGGA
Consider B1, for which, in the data set on C2Cl2 myoblasts (setting [6]), the “HIF-2α mRNA level” value is “reduced” and the “Spry1 mRNA level” value is “reduced”.

The values above are taken from patent publication US12042507B2, “Compositions and methods of modulating HIF-2A to improve muscle generation and repair” (University of Georgia Research Foundation, Inc., priority 2017, dated 2024).
